pIC50: −log10 of the molar value.
Test system: Plasmodium berghei
Assay: Luciferase/luciferin-expressing antifolate-resistant parasites were used to infect a culture of HepG2 cells that were pre-incubated with compounds. Infected hepatocytes emit light due to the luciferase reaction. Assay results are presented as the percent inhibition of light emission compared to control. […]
Assay type: functional
Conditions: sporozoite; for IC90: read-out: LUCIFERASE INFECTION ASSAY - IC90

Structure (SMILES) | IC90 | also measured
O=C1NC(c2ccccc2)=C(c2nc3ccccc3s2)C(c2ccc(O)cc2)N1 (stereo not drawn) | > 10 µM | pIC50 (FFLUC_HILL_SLOPE 17.5, FFLUC_R_SQUARED 0.699, PBLUC_HILL_SLOPE 3.26, 2.75, PBLUC_R_SQUARED 0.346, 0.719, read-out: LUCIFERASE INFECTION ASSAY - IC50): 5.23
CCN(CC(=O)Nc1ccccc1-c1ccccc1)Cc1nc(O)c2ccccc2n1 | 7.89 µM | pIC50 (FFLUC_HILL_SLOPE 18, FFLUC_R_SQUARED 0.273, HEPG2TOX_HILL_SLOPE 1.8, HEPG2TOX_R_SQUARED 0.962, PBLUC_HILL_SLOPE 1.44, PBLUC_R_SQUARED 0.751, read-out: LUCIFERASE INFECTION ASSAY - IC50): 5.76
CN(CC(=O)Nc1c(Cl)cccc1Cl)C(=O)c1ccccc1-c1nc2ccccc2s1 | 6.97 µM | pIC50 (FFLUC_HILL_SLOPE 17.7, FFLUC_R_SQUARED 0.2, PBLUC_HILL_SLOPE 167, PBLUC_R_SQUARED 0.153, read-out: LUCIFERASE INFECTION ASSAY - IC50): 5.16
Cc1cccc(N2CCN(C(=O)c3ccc4[nH]c(C)c(C)c4c3)CC2)c1C | 1.14 µM | pIC50 (FFLUC_HILL_SLOPE 18.8, FFLUC_R_SQUARED 0.39, HEPG2TOX_HILL_SLOPE 1.29, HEPG2TOX_R_SQUARED 0.937, PBLUC_HILL_SLOPE 10.9, PBLUC_R_SQUARED 0.355, read-out: LUCIFERASE INFECTION ASSAY - IC50): 6.03
Cc1ccnc(NC(c2ccccn2)c2ccc3cccnc3c2O)c1 (stereo not drawn) | > 9.64 µM | pIC50 (FFLUC_HILL_SLOPE 17.7, FFLUC_R_SQUARED 0.0708, HEPG2TOX_HILL_SLOPE 10.6, HEPG2TOX_R_SQUARED 0.571, PBLUC_HILL_SLOPE 38.3, PBLUC_R_SQUARED 0.424, read-out: LUCIFERASE INFECTION ASSAY - IC50): 5.03
CC(NC(=O)C12CC3CC(CC(C3)C1)C2)C(=O)N/N=C/C1=C(N2CCOCC2)C(=C\c2ccccc2)/CC1 (stereo not drawn) | > 10 µM | pIC50 (FFLUC_HILL_SLOPE 17.7, FFLUC_R_SQUARED 0.505, PBLUC_HILL_SLOPE 17.3, PBLUC_R_SQUARED 0.294, read-out: LUCIFERASE INFECTION ASSAY - IC50): 5.04
N#C/C(=C\c1ccc(C(F)(F)F)cc1)c1c[nH]c2ccccc12 | > 10.6 µM | pIC50 (FFLUC_HILL_SLOPE 17.8, FFLUC_R_SQUARED 0.181, PBLUC_HILL_SLOPE 2.5, PBLUC_R_SQUARED 0.114, read-out: LUCIFERASE INFECTION ASSAY - IC50): < 4.97
COc1ccc(-c2cnc3ccc(-c4cccc(Cl)c4)nn23)cc1OC | 5.25 µM | pIC50 (FFLUC_HILL_SLOPE 18.1, FFLUC_R_SQUARED 0.385, HEPG2TOX_HILL_SLOPE 1.42, HEPG2TOX_R_SQUARED 0.94, PBLUC_HILL_SLOPE 1.13, PBLUC_R_SQUARED 0.747, read-out: LUCIFERASE INFECTION ASSAY - IC50): 6.13
Nc1ncnc(N/N=C/c2ccc(O)cc2O)c1[N+](=O)[O-] | > 10 µM | pIC50 (FFLUC_HILL_SLOPE 17.8, FFLUC_R_SQUARED 0.491, HEPG2TOX_HILL_SLOPE 1.97, HEPG2TOX_R_SQUARED 0.831, read-out: LUCIFERASE INFECTION ASSAY - IC50): < 5.00
COc1ccc(C(=O)Nc2nc3ccc(C)cn3c2C(=O)NC2CCCCC2)cc1 | 3.1 µM | pIC50 (FFLUC_HILL_SLOPE 17.6, FFLUC_R_SQUARED 0.155, HEPG2TOX_HILL_SLOPE 2.69, HEPG2TOX_R_SQUARED 0.972, PBLUC_HILL_SLOPE 14.3, PBLUC_R_SQUARED 0.423, read-out: LUCIFERASE INFECTION ASSAY - IC50): 5.58
COc1cccc(-c2nc(CSc3nc4ccccc4c(=O)n3C)cs2)c1 | 3.7 µM | pIC50 (FFLUC_HILL_SLOPE 18, FFLUC_R_SQUARED 0.516, HEPG2TOX_HILL_SLOPE 5.55, HEPG2TOX_R_SQUARED 0.861, PBLUC_HILL_SLOPE 17.5, PBLUC_R_SQUARED 0.299, read-out: LUCIFERASE INFECTION ASSAY - IC50): 5.49
C=CCOc1cccc(/C=C2/C(=O)Nc3cc(Cl)ccc32)c1 | > 10 µM | pIC50 (FFLUC_HILL_SLOPE 17.6, FFLUC_R_SQUARED 0.397, HEPG2TOX_HILL_SLOPE 7.7, HEPG2TOX_R_SQUARED 0.755, PBLUC_HILL_SLOPE 12.7, PBLUC_R_SQUARED 0.0397, read-out: LUCIFERASE INFECTION ASSAY - IC50): 5.02
CC(=O)Nc1cccc(/C(C)=N/n2c(-c3cccc([N+](=O)[O-])c3)cs/c2=N\c2c(C)cccc2C)c1 | 4.17 µM | pIC50 (FFLUC_HILL_SLOPE 18.6, FFLUC_R_SQUARED 0.557, PBLUC_HILL_SLOPE 12.4, PBLUC_R_SQUARED 0.7, read-out: LUCIFERASE INFECTION ASSAY - IC50): 5.46
COC(=O)C1=C(Nc2ccc(OC(=O)Nc3cccc(Cl)c3)cc2)CSC1 | > 8.15 µM | pIC50 (FFLUC_HILL_SLOPE 18, FFLUC_R_SQUARED 0.412, read-out: LUCIFERASE INFECTION ASSAY - IC50): < 5.09
O=C(Nc1nonc1-c1cccs1)c1sc2cc(Cl)ccc2c1Cl | 2.76 µM | pIC50 (FFLUC_HILL_SLOPE 17.9, FFLUC_R_SQUARED 0.511, HEPG2TOX_HILL_SLOPE 2.63, HEPG2TOX_R_SQUARED 0.88, PBLUC_HILL_SLOPE 16.1, PBLUC_R_SQUARED 0.687, read-out: LUCIFERASE INFECTION ASSAY - IC50): 5.62
O=C(O)c1cccc2cccc([S+]([O-])c3ccccc3CO)c12 (stereo not drawn) | > 10.1 µM | pIC50 (FFLUC_HILL_SLOPE 17.8, FFLUC_R_SQUARED 0.335, read-out: LUCIFERASE INFECTION ASSAY - IC50): < 5.00
Cc1c(Cl)cccc1NC(=O)CCc1nc(C(C)C)no1 | > 10 µM | pIC50 (FFLUC_HILL_SLOPE 18.3, FFLUC_R_SQUARED 0.35, read-out: LUCIFERASE INFECTION ASSAY - IC50): < 5.00
Cc1cc(C)nc(-n2nc(Nc3ccccc3)cc2Nc2ccccc2)n1 | > 10 µM | pIC50 (FFLUC_HILL_SLOPE 18.6, FFLUC_R_SQUARED 0.489, PBLUC_HILL_SLOPE 15, PBLUC_R_SQUARED 0.577, read-out: LUCIFERASE INFECTION ASSAY - IC50): 5.04
CCOC(=O)c1c(-c2ccc(Cl)cc2)csc1NC(=O)CSc1nc2c(c(CC)c1C#N)C(=O)CC(C)(C)C2 | > 10 µM | pIC50 (FFLUC_HILL_SLOPE 17.7, FFLUC_R_SQUARED 0.746, PBLUC_HILL_SLOPE 12.9, PBLUC_R_SQUARED 0.506, read-out: LUCIFERASE INFECTION ASSAY - IC50): 5.04
CCCCCn1c(SCC(=O)Nc2sccc2C(N)=O)nc2sc3c(c2c1=O)CCC3 | > 10 µM | pIC50 (FFLUC_HILL_SLOPE 17.7, FFLUC_R_SQUARED 0.0867, read-out: LUCIFERASE INFECTION ASSAY - IC50): < 5.00
Cc1ccc(-c2nnc(N/N=C3/C=C(c4ccccc4)C(O)(c4ccccc4)C3)c3ccccc23)cc1C (stereo not drawn) | > 10 µM | pIC50 (FFLUC_HILL_SLOPE 18, FFLUC_R_SQUARED 0.659, PBLUC_HILL_SLOPE 2.04, PBLUC_R_SQUARED 0.344, read-out: LUCIFERASE INFECTION ASSAY - IC50): 5.19
COc1cc(OC)cc(-c2cnc3cnc(-c4cccc(N)c4)cn23)c1 | > 9.53 µM | pIC50 (FFLUC_HILL_SLOPE 17.8, FFLUC_R_SQUARED 0.255, PBLUC_HILL_SLOPE 12.5, PBLUC_R_SQUARED 0.443, read-out: LUCIFERASE INFECTION ASSAY - IC50): 5.03
O=C(Nc1cccc(C2NCC(c3ccccc3Cl)c3c2[nH]c2ccccc32)c1)c1ccc(Cl)cc1 (stereo not drawn) | > 10 µM | pIC50 (FFLUC_HILL_SLOPE 18, FFLUC_R_SQUARED 0.972, PBLUC_HILL_SLOPE 3.03, PBLUC_R_SQUARED 0.515, read-out: LUCIFERASE INFECTION ASSAY - IC50): 5.13
Cc1nn(-c2ccccc2)c2nc(-c3ccccc3)c(-c3nc4ccccc4[nH]3)c(-c3ccncc3)c12 | > 10 µM | pIC50 (FFLUC_HILL_SLOPE 17.6, FFLUC_R_SQUARED 0.574, PBLUC_HILL_SLOPE 2.67, PBLUC_R_SQUARED 0.448, read-out: LUCIFERASE INFECTION ASSAY - IC50): 5.12
Cc1cc(/C=C2\SC(NC3CCCCC3)=NC2=O)c(C)n1-c1ccc(Cl)c(C(F)(F)F)c1 | 9.71 µM | pIC50 (FFLUC_HILL_SLOPE 17.5, FFLUC_R_SQUARED 0.757, PBLUC_HILL_SLOPE 2.43, PBLUC_R_SQUARED 0.441, read-out: LUCIFERASE INFECTION ASSAY - IC50): 5.41
O=S(=O)(Nc1ccc(Oc2cc(C(F)(F)F)cc(C(F)(F)F)c2)cc1)c1cc(C(F)(F)F)cc(C(F)(F)F)c1 | 3.81 µM | pIC50 (FFLUC_HILL_SLOPE 18.8, FFLUC_R_SQUARED 0.264, HEPG2TOX_HILL_SLOPE 15.6, HEPG2TOX_R_SQUARED 0.875, PBLUC_HILL_SLOPE 191, PBLUC_R_SQUARED 0.155, read-out: LUCIFERASE INFECTION ASSAY - IC50): 5.42
CCOC(=O)c1c(-c2ccc(F)cc2)csc1NC(=O)CSc1nc2c(c(-c3ccccc3)c1C#N)C(=O)CC(C)(C)C2 | > 10 µM | pIC50 (FFLUC_HILL_SLOPE 18.8, FFLUC_R_SQUARED 0.892, read-out: LUCIFERASE INFECTION ASSAY - IC50): < 5.00
CC(C)NC(=O)c1c(NC(=O)c2cc(F)cc(F)c2)nc2ccccn12 | 1.12 µM | pIC50 (FFLUC_HILL_SLOPE 17.9, FFLUC_R_SQUARED 0.386, HEPG2TOX_HILL_SLOPE 1.01, HEPG2TOX_R_SQUARED 0.782, PBLUC_HILL_SLOPE 15.7, PBLUC_R_SQUARED 0.648, read-out: LUCIFERASE INFECTION ASSAY - IC50): 6.01
O=[N+]([O-])c1cc(C(F)(F)F)ccc1N1CCCN(C(=S)Nc2cccc(C(F)(F)F)c2)CC1 | > 6.7 µM | pIC50 (FFLUC_HILL_SLOPE 18.8, FFLUC_R_SQUARED 0.397, HEPG2TOX_HILL_SLOPE 0.504, HEPG2TOX_R_SQUARED 0.366, read-out: LUCIFERASE INFECTION ASSAY - IC50): < 5.17

From ChEMBL document CHEMBL4483862, “Open-source discovery of chemical leads for next-generation chemoprotective antimalarials” (2018)
